Experimental data taken from US20080305189A1, “TREATMENT OF ASPIRIN RESISTANCE WITH RADIX SALVIAE MILTIORRHIZAE, ITS EXTRACT AND COMPOSITION” (Tianjin Tasly Pharmaceutical Co., Ltd., priority 2003, published 2008).

Columns and labels:
[1] = system: urinary 11-dehydrothromboxane B2 (TXB2); test: Test Example 2: urinary 11-dehydrothromboxane B2 by immunoenzyme assay, CDDP study; format: in vivo, human; settings: group mean, n = 50; drugs for at least half a year
Text: This study adopted a reviewing method, and the normal value referred to the research results about aspirin resistance in Australia.
All 178 patients, including 140 males and 38 females, came from the retired personnel of the First Sanatorium, Bafenbu Sanatorium. The patients were aged 70˜87 and the average age was 77.1. 170 patients were randomly selected for sample test and the number of patients whose data could be accepted was 150 (IC20˜IC80). Of those enrolled in the study, in addition to aspirin resistance, 91 patients were afflicted with hypertension, 25 patients were afflicted with hyperlipidemia, 32 patients were afflicted with diabetes, 139 patients were afflicted with coronary heart disease, and 57 patients were afflicted with cerebrovascular diseases. […] All the patients administered drugs for at least half a year before sampling.
The urinary sample was the middle section of the first urina of the day. The urinary sample was placed in the liquid nitrogen immediately after sampling and stored at −86[…] in a low-temperature refrigerator. The urinary 11-dehydrothromboxane B2 (TXB2) was determined by immunoenzyme assay using the reagent kit of Cayman Chemical company. All the experiments were completed in the Biological Institute of Tasly Research Academy. Information about patient grouping was double-blind for researchers and statisticians. […]

[2] = system: urinary 11-dehydrothromboxane B2 (TXB2); test: Test Example 3: urinary 11-dehydrothromboxane B2 by immunoenzyme assay, Compound Danshen Tablets study; format: in vivo, human; settings: group mean, n = 50; cardiovascular outpatients with tendency of aspirin resistance; drugs for at least half a year
Text: 150 patients in this study were all selected from the cardiovascular outpatients having the tendency of aspirin resistance. All the patients, including 80 males and 70 females, aged between 70˜85, with the average age of 77. To treat aspirin resistance, 50 patients administered aspirin (aspirin group), 50 patients administered Compound Danshen Tablets (CDT group), and 50 patients administered aspirin and CDT simultaneously (combination therapy group). All the patients administered drugs for at least half a year before sampling.
The urinary sample was the middle section of the first urina of the day. The urinary sample was placed in the liquid nitrogen immediately after sampling and stored at −86□ in a low-temperature refrigerator. The urinary 11-dehydrothromboxane B2 (TXB2) was determined by immunoenzyme assay using the reagent kit of Cayman Chemical company. […] Information about patient grouping was double-blind for researchers and statisticians.

CC(=O)Oc1ccccc1C(=O)O [Aspirin, aspirin]
Urinary 11-dehydro TXB2, X ± SD [1]: 25.02 ± 10.51 ng/mmol | Urinary 11-dehydro TXB2, X ± SD [2]: 25.05 ± 10.42 ng/mmol
